Laboratory results published in ChEMBL document CHEMBL5212743, “Selectivity Literature for EUbOPEN Chemogenomics Library wave 3” (2023).

Key:
D(2) dopamine receptor = D(2) dopamine receptor (Homo sapiens, UniProt P14416); test: Selectivity interaction (GPCR panel (PDSP screen)) EUB0000703a DRD2
[1] = target: Kappa-type opioid receptor (Homo sapiens, UniProt P41145); test: Selectivity interaction (GPCR panel (PDSP screen)) EUB0000703a OPRK1
[2] = target: Sodium-dependent noradrenaline transporter (Homo sapiens, UniProt P23975); test: Selectivity interaction (GPCR panel (PDSP screen)) EUB0000703a SLC6A2
[3] = target: T1, Gamma-aminobutyric acid receptor subunit alpha-1 (Homo sapiens, UniProt P14867); test: Selectivity interaction (GPCR panel (PDSP screen)) EUB0000703a GABRA1
T1 sequence (P14867 whole entry): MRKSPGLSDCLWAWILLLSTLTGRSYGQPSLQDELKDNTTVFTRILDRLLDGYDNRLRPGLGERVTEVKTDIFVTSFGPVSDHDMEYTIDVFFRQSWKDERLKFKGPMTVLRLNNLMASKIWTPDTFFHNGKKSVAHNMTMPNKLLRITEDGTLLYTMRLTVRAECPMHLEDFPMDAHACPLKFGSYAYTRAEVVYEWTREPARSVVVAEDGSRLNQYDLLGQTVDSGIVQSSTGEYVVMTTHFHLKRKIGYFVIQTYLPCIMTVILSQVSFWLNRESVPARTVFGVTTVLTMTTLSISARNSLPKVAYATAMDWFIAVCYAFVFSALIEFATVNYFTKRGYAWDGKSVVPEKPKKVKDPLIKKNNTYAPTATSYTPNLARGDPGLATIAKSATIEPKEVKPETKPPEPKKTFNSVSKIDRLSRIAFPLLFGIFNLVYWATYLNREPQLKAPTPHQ

[4] = target: Epithelial discoidin domain-containing receptor 1 (Homo sapiens, UniProt Q08345); test: Selectivity interaction (KinomeScan (DiscoverX)) EUB0000703a DDR1; conditions: at 1 µM
[5] = target: Discoidin domain-containing receptor 2 (Homo sapiens) (UniProt Q16832); test: Selectivity interaction (KinomeScan (DiscoverX)) EUB0000703a DDR2; conditions: at 1 µM
[6] = target: Tyrosine-protein kinase Lyn (Homo sapiens, UniProt P07948); test: Selectivity interaction (NanoBRET assay (HEK293T cells)) EUB0000703a LYN
[7] = test system: Serine/threonine-protein kinase B-raf (Homo sapiens), P15056 [V600E]; test: Selectivity interaction (KinomeScan (DiscoverX)) EUB0000703a BRAF; conditions: at 1 µM
[8] = target: Phosphatidylinositol 4,5-bisphosphate 3-kinase catalytic subunit alpha isoform (Homo sapiens, UniProt P42336); test: Selectivity interaction (KinomeScan (DiscoverX)) EUB0000703a PIK3CA; conditions: at 1 µM
[9] = target: T2, Adenosine receptor A1 (Homo sapiens) (UniProt P30542); test: Selectivity interaction (CEREP panel (LeadProfilingScreen Eurofins, panel of receptors, ion channels, and other enzymes)) EUB0000191c ADORA1; conditions: at 10 µM
T2 sequence (whole entry): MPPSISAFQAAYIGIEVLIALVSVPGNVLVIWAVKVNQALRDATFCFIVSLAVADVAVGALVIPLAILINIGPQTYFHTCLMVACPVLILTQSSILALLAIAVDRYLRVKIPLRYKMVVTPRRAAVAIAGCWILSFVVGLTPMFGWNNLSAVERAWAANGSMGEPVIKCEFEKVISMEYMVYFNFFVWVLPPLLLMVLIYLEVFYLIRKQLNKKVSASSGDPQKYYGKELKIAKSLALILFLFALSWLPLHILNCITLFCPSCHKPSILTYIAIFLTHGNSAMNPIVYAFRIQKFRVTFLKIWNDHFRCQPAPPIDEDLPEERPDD

[10] = target: T3, Gamma-aminobutyric acid receptor subunit alpha-1 (Homo sapiens) (UniProt P14867); test: Selectivity interaction (CEREP panel (LeadProfilingScreen Eurofins, panel of receptors, ion channels, and other enzymes)) EUB0000191c GABRA1; conditions: at 10 µM
T3 sequence (whole entry): T1 sequence (P14867 whole entry)

[11] = target: cGMP-dependent 3',5'-cyclic phosphodiesterase (Homo sapiens) (UniProt O00408); test: Selectivity interaction (CEREP panel (LeadProfilingScreen Eurofins, panel of receptors, ion channels, and other enzymes)) EUB0000191c PDE2A; conditions: at 10 µM
[12] = target: cGMP-specific 3',5'-cyclic phosphodiesterase (Homo sapiens) (UniProt O76074); test: Selectivity interaction (CEREP panel (LeadProfilingScreen Eurofins, panel of receptors, ion channels, and other enzymes)) EUB0000191c PDE5A; conditions: at 10 µM
[13] = target: T4, Bromodomain-containing protein 4 (Homo sapiens, UniProt O60885); test: (§1) Selectivity interaction (TR-FRET assay) EUB0000191c BRD4
[14] = target: T4, Bromodomain-containing protein 4; test: as §1; remark: listed apart in the source
[15] = target: T5, Bromodomain-containing protein 7 (Homo sapiens) (UniProt Q9NPI1); test: Selectivity interaction (Bromodomain panel (DSF assay)) EUB0000191c BRD7
T5 sequence (whole entry): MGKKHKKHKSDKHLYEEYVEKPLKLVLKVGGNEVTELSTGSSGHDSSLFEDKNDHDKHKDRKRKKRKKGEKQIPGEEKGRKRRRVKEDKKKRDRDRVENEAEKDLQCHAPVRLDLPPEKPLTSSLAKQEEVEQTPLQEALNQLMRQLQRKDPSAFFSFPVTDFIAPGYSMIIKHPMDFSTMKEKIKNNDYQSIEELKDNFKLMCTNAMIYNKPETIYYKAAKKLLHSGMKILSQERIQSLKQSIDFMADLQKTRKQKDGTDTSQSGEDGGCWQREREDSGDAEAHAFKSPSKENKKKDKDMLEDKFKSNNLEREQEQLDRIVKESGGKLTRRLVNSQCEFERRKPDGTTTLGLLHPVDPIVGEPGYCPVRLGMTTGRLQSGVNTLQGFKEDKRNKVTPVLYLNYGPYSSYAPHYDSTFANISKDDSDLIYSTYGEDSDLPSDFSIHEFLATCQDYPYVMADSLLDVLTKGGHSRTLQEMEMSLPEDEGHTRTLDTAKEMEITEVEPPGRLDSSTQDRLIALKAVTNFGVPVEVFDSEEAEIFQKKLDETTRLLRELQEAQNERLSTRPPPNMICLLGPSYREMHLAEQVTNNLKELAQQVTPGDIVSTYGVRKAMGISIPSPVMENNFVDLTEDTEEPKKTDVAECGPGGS

[16] = target: T6, Chromatin remodeling regulator CECR2 (Homo sapiens, UniProt Q9BXF3); test: Selectivity interaction (Bromodomain panel (DSF assay)) EUB0000191c CECR2
[17] = target: T6, Chromatin remodeling regulator CECR2; test: Selectivity interaction (ITC) EUB0000191c CECR2
CREB-binding protein = CREB-binding protein (Homo sapiens, UniProt Q92793); test: Selectivity interaction (BROMOscan (DiscoverX)) EUB0000191c CREBBP; conditions: at 100 nM
[18] = target: Histone acetyltransferase p300 (Homo sapiens) (UniProt Q09472); test: Selectivity interaction (Bromodomain panel (DSF assay)) EUB0000191c EP300
[19] = target: Transcription initiation factor TFIID subunit 1-like (Homo sapiens) (UniProt Q8IZX4); test: Selectivity interaction (BROMOscan (DiscoverX)) EUB0000191c TAF1L; conditions: at 100 nM
Sequence of Transcription initiation factor TFIID subunit 1-like (Homo sapiens) (Q8IZX4 whole entry): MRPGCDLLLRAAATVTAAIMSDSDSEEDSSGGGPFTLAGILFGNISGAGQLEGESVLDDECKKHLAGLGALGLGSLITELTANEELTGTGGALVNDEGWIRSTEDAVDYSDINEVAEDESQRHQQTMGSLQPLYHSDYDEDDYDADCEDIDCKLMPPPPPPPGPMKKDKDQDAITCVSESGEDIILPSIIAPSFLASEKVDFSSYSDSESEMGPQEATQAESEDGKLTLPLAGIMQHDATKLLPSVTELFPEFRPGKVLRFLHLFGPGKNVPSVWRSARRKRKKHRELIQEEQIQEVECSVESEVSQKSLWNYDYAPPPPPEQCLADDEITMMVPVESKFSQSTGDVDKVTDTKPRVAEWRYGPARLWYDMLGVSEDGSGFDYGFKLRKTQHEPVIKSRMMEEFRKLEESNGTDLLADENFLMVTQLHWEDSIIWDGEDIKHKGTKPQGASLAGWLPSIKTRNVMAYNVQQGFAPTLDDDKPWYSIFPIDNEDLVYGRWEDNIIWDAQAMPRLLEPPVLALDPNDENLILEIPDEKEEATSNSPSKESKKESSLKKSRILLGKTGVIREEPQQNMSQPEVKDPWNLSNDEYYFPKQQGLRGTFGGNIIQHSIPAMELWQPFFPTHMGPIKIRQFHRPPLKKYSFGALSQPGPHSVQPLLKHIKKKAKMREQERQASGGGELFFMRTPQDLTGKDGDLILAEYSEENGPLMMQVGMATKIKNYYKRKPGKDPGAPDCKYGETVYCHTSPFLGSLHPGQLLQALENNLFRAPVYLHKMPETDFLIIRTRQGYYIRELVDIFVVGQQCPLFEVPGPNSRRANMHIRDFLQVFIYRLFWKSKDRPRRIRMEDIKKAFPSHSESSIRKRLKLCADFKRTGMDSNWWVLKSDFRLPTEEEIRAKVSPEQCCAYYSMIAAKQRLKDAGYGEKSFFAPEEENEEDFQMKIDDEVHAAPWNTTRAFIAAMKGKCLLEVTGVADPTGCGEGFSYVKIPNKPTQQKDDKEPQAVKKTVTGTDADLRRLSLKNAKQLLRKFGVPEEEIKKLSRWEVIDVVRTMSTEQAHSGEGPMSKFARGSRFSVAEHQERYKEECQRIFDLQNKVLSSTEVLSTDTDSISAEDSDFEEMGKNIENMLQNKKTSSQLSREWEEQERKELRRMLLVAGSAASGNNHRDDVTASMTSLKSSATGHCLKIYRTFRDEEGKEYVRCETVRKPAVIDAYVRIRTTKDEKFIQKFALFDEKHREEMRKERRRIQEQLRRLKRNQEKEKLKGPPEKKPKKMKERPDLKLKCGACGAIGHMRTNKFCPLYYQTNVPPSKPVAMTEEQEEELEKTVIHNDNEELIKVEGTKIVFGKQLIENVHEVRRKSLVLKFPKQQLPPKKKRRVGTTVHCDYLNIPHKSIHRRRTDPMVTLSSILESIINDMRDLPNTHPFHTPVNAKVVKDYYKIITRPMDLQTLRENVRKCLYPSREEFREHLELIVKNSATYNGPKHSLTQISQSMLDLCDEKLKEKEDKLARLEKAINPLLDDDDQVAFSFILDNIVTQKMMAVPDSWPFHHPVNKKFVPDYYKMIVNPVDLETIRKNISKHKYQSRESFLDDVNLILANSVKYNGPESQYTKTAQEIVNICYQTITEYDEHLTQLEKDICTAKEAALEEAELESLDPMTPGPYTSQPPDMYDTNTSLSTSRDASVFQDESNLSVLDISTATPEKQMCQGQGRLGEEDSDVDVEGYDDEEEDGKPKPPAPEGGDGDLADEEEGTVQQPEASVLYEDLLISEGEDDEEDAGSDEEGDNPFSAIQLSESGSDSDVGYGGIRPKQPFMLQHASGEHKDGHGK

Sequence of Histone acetyltransferase p300 (Homo sapiens) (Q09472 whole entry): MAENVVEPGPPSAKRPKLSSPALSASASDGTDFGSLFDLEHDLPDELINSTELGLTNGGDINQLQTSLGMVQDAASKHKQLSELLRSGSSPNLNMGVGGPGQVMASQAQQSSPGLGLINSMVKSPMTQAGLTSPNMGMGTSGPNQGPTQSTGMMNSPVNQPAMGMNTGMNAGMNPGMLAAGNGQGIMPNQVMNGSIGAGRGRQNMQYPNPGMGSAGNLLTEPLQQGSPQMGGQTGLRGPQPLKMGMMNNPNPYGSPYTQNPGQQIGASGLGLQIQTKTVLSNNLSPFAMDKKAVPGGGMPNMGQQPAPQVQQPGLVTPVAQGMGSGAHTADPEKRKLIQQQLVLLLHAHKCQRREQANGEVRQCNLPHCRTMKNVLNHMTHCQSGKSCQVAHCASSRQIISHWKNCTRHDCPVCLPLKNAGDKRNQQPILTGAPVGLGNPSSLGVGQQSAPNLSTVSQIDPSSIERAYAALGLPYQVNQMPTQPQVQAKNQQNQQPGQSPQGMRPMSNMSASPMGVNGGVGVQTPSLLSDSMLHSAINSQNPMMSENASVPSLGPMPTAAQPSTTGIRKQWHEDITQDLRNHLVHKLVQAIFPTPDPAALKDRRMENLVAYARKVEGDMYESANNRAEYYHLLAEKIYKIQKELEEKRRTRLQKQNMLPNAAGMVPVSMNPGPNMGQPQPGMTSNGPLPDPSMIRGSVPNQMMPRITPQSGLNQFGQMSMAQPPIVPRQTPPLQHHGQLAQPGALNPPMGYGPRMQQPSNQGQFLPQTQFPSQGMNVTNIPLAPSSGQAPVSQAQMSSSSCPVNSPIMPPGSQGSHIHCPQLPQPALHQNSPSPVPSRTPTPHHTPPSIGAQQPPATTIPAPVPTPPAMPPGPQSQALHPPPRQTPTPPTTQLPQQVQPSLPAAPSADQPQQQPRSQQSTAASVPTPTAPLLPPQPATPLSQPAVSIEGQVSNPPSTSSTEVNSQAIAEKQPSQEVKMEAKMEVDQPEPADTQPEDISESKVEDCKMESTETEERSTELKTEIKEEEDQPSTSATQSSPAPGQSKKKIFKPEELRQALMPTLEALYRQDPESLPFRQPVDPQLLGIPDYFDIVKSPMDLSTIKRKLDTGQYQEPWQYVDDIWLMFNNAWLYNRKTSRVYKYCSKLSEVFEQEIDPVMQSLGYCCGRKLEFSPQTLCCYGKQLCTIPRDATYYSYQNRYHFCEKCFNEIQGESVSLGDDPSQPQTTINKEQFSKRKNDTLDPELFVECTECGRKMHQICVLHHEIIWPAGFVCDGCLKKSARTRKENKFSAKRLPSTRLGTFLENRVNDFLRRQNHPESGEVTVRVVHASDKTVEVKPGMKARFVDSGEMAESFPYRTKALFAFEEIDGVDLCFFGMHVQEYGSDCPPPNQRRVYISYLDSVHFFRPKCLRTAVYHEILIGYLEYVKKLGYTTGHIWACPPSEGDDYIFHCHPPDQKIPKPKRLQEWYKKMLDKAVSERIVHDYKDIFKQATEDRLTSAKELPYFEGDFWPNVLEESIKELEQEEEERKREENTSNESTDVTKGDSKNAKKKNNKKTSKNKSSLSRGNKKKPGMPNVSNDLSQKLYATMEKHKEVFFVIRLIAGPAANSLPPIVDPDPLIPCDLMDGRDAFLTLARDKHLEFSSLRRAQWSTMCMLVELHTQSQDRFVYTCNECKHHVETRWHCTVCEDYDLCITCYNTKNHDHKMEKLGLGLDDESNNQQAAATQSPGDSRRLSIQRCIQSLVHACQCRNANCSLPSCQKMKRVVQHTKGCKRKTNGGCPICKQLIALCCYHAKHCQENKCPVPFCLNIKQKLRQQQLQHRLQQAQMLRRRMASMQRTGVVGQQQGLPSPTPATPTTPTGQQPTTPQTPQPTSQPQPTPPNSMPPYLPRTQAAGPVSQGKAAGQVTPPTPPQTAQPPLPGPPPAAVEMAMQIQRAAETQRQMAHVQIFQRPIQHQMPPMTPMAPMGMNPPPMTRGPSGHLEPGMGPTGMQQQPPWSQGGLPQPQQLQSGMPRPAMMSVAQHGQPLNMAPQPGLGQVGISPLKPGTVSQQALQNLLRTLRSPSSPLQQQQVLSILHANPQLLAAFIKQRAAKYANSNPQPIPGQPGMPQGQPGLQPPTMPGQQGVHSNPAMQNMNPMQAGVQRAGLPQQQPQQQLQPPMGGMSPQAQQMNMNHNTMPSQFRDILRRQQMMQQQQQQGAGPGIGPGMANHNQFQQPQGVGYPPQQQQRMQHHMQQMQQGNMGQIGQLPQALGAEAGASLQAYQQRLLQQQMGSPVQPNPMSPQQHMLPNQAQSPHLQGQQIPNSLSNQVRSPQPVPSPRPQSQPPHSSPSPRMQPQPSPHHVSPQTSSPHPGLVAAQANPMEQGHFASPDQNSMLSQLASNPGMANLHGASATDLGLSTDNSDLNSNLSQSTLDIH
Sequence of Serine/threonine-protein kinase B-raf (Homo sapiens), P15056 [V600E] (P15056 whole entry V600E, canonical isoform): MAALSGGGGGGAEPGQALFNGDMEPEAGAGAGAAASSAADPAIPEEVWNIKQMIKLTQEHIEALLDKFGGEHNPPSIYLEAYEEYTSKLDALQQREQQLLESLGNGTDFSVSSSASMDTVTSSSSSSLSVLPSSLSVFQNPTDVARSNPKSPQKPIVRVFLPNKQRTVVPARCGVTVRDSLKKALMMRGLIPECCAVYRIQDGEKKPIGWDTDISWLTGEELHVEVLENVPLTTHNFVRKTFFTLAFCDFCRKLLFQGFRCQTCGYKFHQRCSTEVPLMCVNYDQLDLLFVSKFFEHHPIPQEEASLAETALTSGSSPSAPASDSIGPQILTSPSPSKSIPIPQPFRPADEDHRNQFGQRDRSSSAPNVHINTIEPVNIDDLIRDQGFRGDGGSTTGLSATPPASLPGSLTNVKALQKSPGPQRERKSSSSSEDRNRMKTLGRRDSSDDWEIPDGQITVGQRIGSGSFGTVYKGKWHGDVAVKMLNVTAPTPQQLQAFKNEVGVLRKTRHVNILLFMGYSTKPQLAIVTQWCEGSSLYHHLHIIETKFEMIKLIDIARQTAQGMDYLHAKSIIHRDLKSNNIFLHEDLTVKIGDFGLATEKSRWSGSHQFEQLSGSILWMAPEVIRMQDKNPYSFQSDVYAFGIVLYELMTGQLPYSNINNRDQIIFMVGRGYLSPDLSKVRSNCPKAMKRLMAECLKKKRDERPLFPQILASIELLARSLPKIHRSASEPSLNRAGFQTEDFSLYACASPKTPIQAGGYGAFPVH

Cc1cc(NC(=O)c2cccc(S(F)(F)(F)(F)F)c2)cc(-n2ccn3nc(-c4cccnc4)cc23)c1 [BAY-309]
Ki (D(2) dopamine receptor): > 10 µM | Ki [1]: > 10 µM | Ki [2]: > 10 µM | Ki [3]: 10.9 µM | % of control [4]: 0% | % of control [5]: 18% | IC50 [6]: 7 µM | % of control [7]: 24% | % of control [8]: 23%

Cc1cc2c(cc1N1C(=O)c3cccc4c(CCCO)ccc(c34)C1=O)n(C)c(=O)n2C
% of control [9]: 48% | % of control [10]: 23% | % of control [11]: 49% | % of control [12]: 2% | IC50 [13]: > 15 µM | IC50 [14]: > 20 µM | dTm [15]: 2.3 K | dTm [16]: 3.5 K | Kd [17]: 1.39 µM | % of control (CREB-binding protein): 30% | dTm [18]: 3.5 K | % of control [19]: 0.7%
